# How the values were obtained:
# [1] = UV-Vis titrations for solubility; assay type: physicochemical
# Protocol: The study of UV-vis properties of pyridine-based polyheteroaromatic compounds detailed in this study enable the determination of their solubility in various conditions (DMSO, H2O and cacodylate buffers (10 mM sodium cacodylate+100 mM NaCl (for Caco.Na) or KCl (for Caco.K)): the simplest method for this is to measure the absorption spectra of compound 3 at various concentrations (from 0 to 32 μM); solubility of compound 3 is thus evaluated through the reporting of its absorbance at a given wavelength (herein 338 nm (A338)) as a function of the concentration of compound 3 and applying the Beer-Lambert law.
# [2] = system: F21T (human telomeric quadruplex-DNA); test: FRET-melting assay with F21T; assay type: binding; settings: for ΔT1/2 F21T: 0.2 μM F21T, 1 μM compound; for F21T stabilization maintained: sodium buffer
# Protocol: Stabilization, and so interaction, of compounds with quadruplex-structure is monitored via FRET-melting assay, in a version that also enables the determination of the quadruplex-over duplex-DNA selectivity as well as the intra-quadruplex selectivity (17).
# FRET assay is performed with oligonucleotides that mimic the human or plasmodium telomeric sequences, and equipped with FRET partners at each extremities: F21T (FAM-G3[T2AG3]3-Tamra,) FPf1T (FAM-G3[T3AG3]3-Tamra) and FPf8T (FAM-G3[T2CAG3]3-Tamra) with FAM: 6-carboxyfluorescein and Tamra: 6-carboxy-tetramethylrhodamine). Measurements were made with excitation at 492 nm and detection at 516 nm.
# Fluorescence melting were carried out. The results are given on FIG. 3A-FIG. 3C. The experiments were carried out with 0.2 μM of F21T, FPf1T or FPf8T in a buffer containing 10 mM lithium cacodylate pH 7.2 and 100 mM NaCl or KCl (see example of F21T below, NaCl (left) and KCl (right)); the melting of the quadruplex-DNA was monitored alone and in the presence of 1 μM (5 equiv.) of compound 3.
# Fluorescence melting are carried out with 0.2 μM of F21T in a buffer containing 10 mM lithium cacodylate pH 7.2 and 100 mM NaCl; the melting of the G-quadruplex was monitored alone and in the presence of 1 μM of compound 3 without or with excess (1, 3 and 10 μM) of duplex-DNA competitor ds26 (a 26 base-pair duplex-DNA comprised of the self complementary sequence [5′-[…]-3′]). The results are given on FIG. 4
# Fluorescence melting experiments are carried out with 0.2 μM of F21T in a buffer containing 10 mM lithium cacodylate pH 7.2 and 100 mM NaCl; the melting of the G-quadruplex was monitored alone and in the presence of 1 μM of compound 3 without or with excess (1, 3 and 10 μM) of quadruplex-DNA competitors, both TG5T ([(5′-TG5T-3′)4], a tetramolecular quadruplex-DNA used in previous study (21) or c-myc ([5′-[…]-3′], a sequence present in the promoter region of the oncogene c-myc, highly suspected to fold into an intramolecular quadruplex-structure (22-25). The results are given on FIG. 5A-FIG. 5B.
# FIG. 16 gives results obtained in FRET-melting, using the same sodium conditions as above defined in a) and b), with compounds 3 and 4. The melting of the Fluorescently labelled quadruplex F21T was monitored alone and in the presence of 1 μM of compound 3 or compound 4 without or with excess (1.3 and 10 μM) of duplex-DNA competitor ds26 (a 26 base-pair duplex DNA comprised the above mentioned self-complementary sequence [5′-[…]-3′]).
# [3] = system: c-kit2 quadruplex-DNA; test: Circular dichroism with c-kit2; assay type: binding; settings: 3 μM c-kit2, 30 μM compound, 100 mM KCl, 285 nm
# Protocol: Circular dichroism (CD) enables a deep study of the modification of the DNA structure upon the binding of a ligand; it thus reflects the affinity of the ligand to its target, and can also provide insight into its binding mode (Paramasivan et al, Methods, 2007, 43, 324).
# The intra-quadruplex selectivity is evaluated through CD by comparison of experiments carried out with 22AG (see above) and with two other quadruplex-structures: c-myc and c-kit2 (see above). The results are given on FIG. 11A and FIG. 11B. To a 3 μM solution of both c-kit2 (left) and c-myc (right) in cacodylate buffer (10 mM sodium cacodylate+100 mM KCl) is added an excess of compound 3 (30 μM, 10 equiv.).
# [4] = target: hPOT1; test: Electrophoretic mobility shift assay, POT1/22AG binding; set-up: species or system human; settings: 30 nM hPOT1, 20 nM 32P-22AG, 30 min room temperature
# Protocol: An electrophoretic mobility shift assay using hPOT1 was performed on the telomeric 22AG oligonucleotide (see above). 22AG was labeled at the 5′ end with [γ-^32P]-ATP using T4 polynucletide kinase. Purified recombinant hPOT1 was produced in a baculovirus expression system. The POT1/22AG binding assay was performed in a total volume of 10 μl containing 50 mM HEPES, pH 7.9, 100 mM NaCl, 0.1 mM EDTA, 4% w/v sucrose, 2% v/v glycerol, 0.1 mg/ml BSA, 0.02% w/v bromophenol blue, 30 nM hPOT1, 20 nM [[…]-^32P]-22AG. Different concentrations of compound 3 (10, 1, 0.1 and 0.01 μM) were added with hPOT1 to the solution and the mixture was incubated at room temperature for 30 min. Each individual sample was separated by electroporesis on 1% agarose gel in 0.5×Tris-Borate-EDTA buffer. The gel was run at 80V for 35 min, dried on whatman DE81 paper and radiaoactivity visualized by a phosphorimager (Typhoon 9210, Amersham). Analysis of the data was carried out by ImageQuant software (Amersham) and results were expressed as a percentage of the POT1-22AG complex obtained in the untreated control (defined as 100%) (see FIG. 14).
structure (smiles),measurement,setting,value
"c1cc(-c2cnc(-c3cccc(-c4cnco4)n3)o2)nc(-c2cnc(-c3cccc(-c4cnco4)n3)o2)c1 [compound 3, 2,6-bis{2-[6-(oxazol-5-yl)pyridin-2-yl]oxazol-5-yl}pyridine]",solubility,"[1]; DMSO, H2O and aqueous cacodylate buffers (Na+ or K+-rich), A338, 0 to 32 μM",soluble in all the solvent systems used herein
same,self-aggregation,"[1]; within the 0 to 32 μM concentration range, all solvent systems",does not self-aggregate
same,ΔT1/2 F21T,[2]; K+ (100 mM KCl),1.3 °C
same,ΔT1/2 F21T,[2]; Na+ (100 mM NaCl),14.6 °C
same,F21T stabilization maintained,[2]; 1 μM of TG5T competitor,61%
same,F21T stabilization maintained,[2]; 1 μM of c-myc competitor,42%
same,F21T stabilization maintained,[2]; 3 μM of TG5T competitor,37%
same,F21T stabilization maintained,[2]; 3 μM of c-myc competitor,15%
same,F21T stabilization maintained,[2]; 10 μM of TG5T competitor,17%
same,F21T stabilization maintained,[2]; 10 μM of c-myc competitor,1%
same,F21T stabilization maintained,"[2]; in presence of 1, 3 or 10 μM of ds26 duplex competitor",> 91%
same,CD signal of c-kit2,[3],modification of the amplitude of the CD signal
same,IC50,[4],300 nM
same,melting point,,> 250 °C
